Measurements reported in ChEMBL document CHEMBL1201862, “PubChem BioAssay data set” (2004).
Activity calls are given as the source filed them.

How the values were obtained:
[1] = molecular target: T1, RNA-binding protein pos-1 (Caenorhabditis elegans, UniProt G5EF15); assay: disruptors of C. elegans POS-1 RNA interaction – biochemical, fluorescence polarization, dose response (AID 1964);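 also: purified POS-1 fused to maltose binding protein made in E. coli; potency of compounds blocking POS-1 binding to fluorescent RNA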
T1 sequence (G5EF15 whole entry): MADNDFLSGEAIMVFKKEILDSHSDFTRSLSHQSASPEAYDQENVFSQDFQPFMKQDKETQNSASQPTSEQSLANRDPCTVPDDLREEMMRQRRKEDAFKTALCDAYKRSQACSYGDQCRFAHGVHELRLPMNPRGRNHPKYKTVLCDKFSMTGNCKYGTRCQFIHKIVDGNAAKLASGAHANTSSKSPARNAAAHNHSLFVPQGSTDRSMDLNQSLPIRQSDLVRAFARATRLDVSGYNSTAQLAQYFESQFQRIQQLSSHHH

[2] = molecular target: T2, Zinc finger protein mex-5 (Caenorhabditis elegans, UniProt Q9XUB2); assay: potency of MEX-5 RNA-binding blockers – biochemical, C. elegans, fluorescence polarization, dose response (AID 1960)
T2 sequence (Q9XUB2 whole entry): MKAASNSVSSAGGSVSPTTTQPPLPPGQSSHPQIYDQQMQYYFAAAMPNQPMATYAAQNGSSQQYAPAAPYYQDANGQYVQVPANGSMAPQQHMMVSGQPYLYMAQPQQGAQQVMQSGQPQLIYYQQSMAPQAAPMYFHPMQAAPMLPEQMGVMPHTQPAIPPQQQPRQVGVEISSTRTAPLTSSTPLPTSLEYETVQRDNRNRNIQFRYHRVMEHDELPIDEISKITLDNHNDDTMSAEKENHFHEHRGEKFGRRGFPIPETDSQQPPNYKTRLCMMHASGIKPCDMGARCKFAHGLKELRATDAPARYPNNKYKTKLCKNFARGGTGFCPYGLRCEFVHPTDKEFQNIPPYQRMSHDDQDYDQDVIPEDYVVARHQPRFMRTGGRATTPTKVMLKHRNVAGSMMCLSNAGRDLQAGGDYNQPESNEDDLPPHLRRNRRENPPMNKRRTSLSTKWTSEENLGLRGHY

[3] = molecular target: T3, Heat shock factor protein 1 (Mus musculus, UniProt P38532); assay: decrease of HSF1-responsive luciferase luminescence – cell-based, NIH3T3, dose retest, confirmation (AID 2382); format: functional;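 also: NIH3T3 fibroblasts with HSF1-driven luciferase reporter stressed by proteasome inhibitor MG132; luminescence from HSF1-driven luciferase expression after 8 hours of MG132 stress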
T3 sequence (P38532 whole entry): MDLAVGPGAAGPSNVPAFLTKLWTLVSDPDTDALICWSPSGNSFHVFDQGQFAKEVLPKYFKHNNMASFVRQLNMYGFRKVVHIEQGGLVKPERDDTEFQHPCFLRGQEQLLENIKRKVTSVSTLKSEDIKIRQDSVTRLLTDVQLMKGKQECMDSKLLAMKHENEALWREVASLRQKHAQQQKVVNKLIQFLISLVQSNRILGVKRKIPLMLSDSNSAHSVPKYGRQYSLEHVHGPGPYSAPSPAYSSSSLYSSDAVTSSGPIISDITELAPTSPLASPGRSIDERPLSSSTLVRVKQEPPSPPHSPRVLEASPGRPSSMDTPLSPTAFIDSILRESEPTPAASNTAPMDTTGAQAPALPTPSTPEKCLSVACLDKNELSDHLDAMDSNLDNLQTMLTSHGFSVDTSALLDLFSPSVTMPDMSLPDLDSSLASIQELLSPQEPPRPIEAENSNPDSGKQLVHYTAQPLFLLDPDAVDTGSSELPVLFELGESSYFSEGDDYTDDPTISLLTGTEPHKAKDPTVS

[4] = Trypanosoma cruzi growth suppression in host cells – NIH3T3 host cells, beta-gal luminescence, confirmation (AID 2044); format: functional, cell-based;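 also: intracellular parasites grown in NIH/3T3 mouse fibroblasts as host cells; luminescent beta-galactosidase reporter signal from transgenic T. cruzi replicating inside host cells; inhibitors lower the luminescence signal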
[5] = NIH3T3 cell viability loss – ATP luminescence, mouse fibroblasts, counter-screen, dose response (AID 2010); format: functional, cell-based;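 also: cells exposed to compound for about 90 hours before reading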
[6] = reduction of Shn3 3'UTR-driven luciferase in osteoblasts – cell-based, Clone20 osteoblasts, firefly luciferase, cherry-picked, dose response (AID 624132); format: functional;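 also: firefly luciferase luminescence from reporter carrying the Shn3 3'UTR in osteoblasts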
[7] = loss of viability in HepG2 cells – cell-based, CellTiter-Glo, cherry-picked, cytotoxicity control for Shn3 inhibitor project, dose response (AID 624134); format: functional
[8] = non-specific 3'UTR reporter inhibition in Clone20-Shn3RL – cell-based, Renilla luciferase, cherry-picked, counter-screen for Shn3 inhibitor project, dose response (AID 624133); format: functional
Large T antigen = Large T antigen (Simian virus 40, UniProt P03070); format: functional, Betapolyomavirus macacae;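 also: Confirmatory-stage PubChem screen for compounds that inhibit SV40 T antigen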
[9] = molecular target: T4, Rac GTPase-activating protein 1 (Homo sapiens, UniProt Q9H0H5); assay: blockers of MgcRacGAP-driven Rac1 GTP hydrolysis – biochemical, ADP Hunter fluorescence, primary and confirmatory, confirmation (AID 624330); format: functional
T4 sequence (Q9H0H5 whole entry): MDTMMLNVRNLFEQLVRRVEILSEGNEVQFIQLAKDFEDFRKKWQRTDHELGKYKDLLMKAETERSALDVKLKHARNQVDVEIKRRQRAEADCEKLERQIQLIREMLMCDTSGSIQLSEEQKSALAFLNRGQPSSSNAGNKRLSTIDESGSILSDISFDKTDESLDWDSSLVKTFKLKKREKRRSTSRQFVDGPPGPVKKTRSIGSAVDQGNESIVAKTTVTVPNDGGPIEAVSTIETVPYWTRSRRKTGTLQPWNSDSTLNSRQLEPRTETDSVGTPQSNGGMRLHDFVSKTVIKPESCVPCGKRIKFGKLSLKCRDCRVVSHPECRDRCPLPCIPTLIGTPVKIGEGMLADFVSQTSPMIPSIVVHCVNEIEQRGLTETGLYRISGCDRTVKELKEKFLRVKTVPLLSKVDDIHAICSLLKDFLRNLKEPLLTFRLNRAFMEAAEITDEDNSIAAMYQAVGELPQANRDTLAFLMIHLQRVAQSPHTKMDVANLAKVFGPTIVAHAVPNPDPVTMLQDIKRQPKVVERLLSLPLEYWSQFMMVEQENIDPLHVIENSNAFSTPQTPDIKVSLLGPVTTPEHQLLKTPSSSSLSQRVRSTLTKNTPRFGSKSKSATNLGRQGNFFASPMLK

H9c2 = assay: cells; format: functional, cell-based; conditions: Rattus norvegicus, H9c2, Myocardium;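 also: confirmatory concentration-response retest of ultra-high-throughput screening hits for modulation of myocardial damage; cell death induced by hydrogen peroxide oxidative stress; compound pretreatment for 60 min then peroxide exposure for 2 h; potency is for protecting the cells against peroxide damage rather than for killing them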
[10] = molecular target: T5, Ubiquitin-conjugating enzyme E2 N (Homo sapiens, UniProt P61088); format: functional;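 also: Dose-response confirmation in a TR-FRET assay detecting UBC13-driven polyubiquitin chain formation, inhibition measured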
T5 sequence (P61088 whole entry): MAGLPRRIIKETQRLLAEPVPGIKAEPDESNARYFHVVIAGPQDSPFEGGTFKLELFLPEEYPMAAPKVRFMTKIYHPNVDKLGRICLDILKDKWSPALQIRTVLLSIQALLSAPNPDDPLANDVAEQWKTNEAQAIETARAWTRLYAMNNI

Cytochrome P450 3A4 = Cytochrome P450 3A4 (Homo sapiens, UniProt P08684);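 also: CYP3A4 tested as one member of a cytochrome P450 panel screen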
[11] = Luminescence Cell-Based Dose Retest to Confirm Inhibitors of Cancer Stem Cells. [Related pubchem assays (depositor defined):AID2717, AID2721]; format: functional; conditions: Homo sapiens
[12] = Luminescence Cell-Based Dose Confirmation HTS to Identify Activators of 5'UTR Stem-Loop Driven Alpha-Synuclein mRNA Translation in H4 Neuroglioblastoma Cells. [Related pubchem assays: 1829 (Project Summary), 1814 (Primary HTS)]; format: functional
[13] = Luminescence Cell-Based Dose Response HTS to Identify Activators of Luciferase Translation or Activity in H4 […] Cells. [Related pubchem assays: 1829 (Project Summary), 1814 (Primary HTS)]; format: functional
H4 = assay: Luminescence Cell-Based Dose Response HTS to Identify Activators of 5'UTR Stem-Loop Driven Prion Protein mRNA Translation in H4 Neuroglioblastoma Cells. [Related pubchem assays: 1829 (Project Summary), 1814 (Primary HTS)]; format: functional; conditions: Homo sapiens
Paired box protein Pax-8 = Paired box protein Pax-8 (Homo sapiens, UniProt Q06710); assay: PAX8 transcriptional activity inhibition in RMG-I – RMG-I cells, luciferase, cherry-pick, dose response (AID 687027); format: functional, cell-based;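 also: luciferase reporter driven by Pax8 target thyroperoxidase promoter measured by SteadyGlo luminescence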
[14] = OVCAR8 cell viability loss – plate reader, dry powder samples, PAX8 project, dose response (AID 743197); format: functional, cell-based; conditions: OVCAR-8

Sequence of Large T antigen (P03070 whole entry): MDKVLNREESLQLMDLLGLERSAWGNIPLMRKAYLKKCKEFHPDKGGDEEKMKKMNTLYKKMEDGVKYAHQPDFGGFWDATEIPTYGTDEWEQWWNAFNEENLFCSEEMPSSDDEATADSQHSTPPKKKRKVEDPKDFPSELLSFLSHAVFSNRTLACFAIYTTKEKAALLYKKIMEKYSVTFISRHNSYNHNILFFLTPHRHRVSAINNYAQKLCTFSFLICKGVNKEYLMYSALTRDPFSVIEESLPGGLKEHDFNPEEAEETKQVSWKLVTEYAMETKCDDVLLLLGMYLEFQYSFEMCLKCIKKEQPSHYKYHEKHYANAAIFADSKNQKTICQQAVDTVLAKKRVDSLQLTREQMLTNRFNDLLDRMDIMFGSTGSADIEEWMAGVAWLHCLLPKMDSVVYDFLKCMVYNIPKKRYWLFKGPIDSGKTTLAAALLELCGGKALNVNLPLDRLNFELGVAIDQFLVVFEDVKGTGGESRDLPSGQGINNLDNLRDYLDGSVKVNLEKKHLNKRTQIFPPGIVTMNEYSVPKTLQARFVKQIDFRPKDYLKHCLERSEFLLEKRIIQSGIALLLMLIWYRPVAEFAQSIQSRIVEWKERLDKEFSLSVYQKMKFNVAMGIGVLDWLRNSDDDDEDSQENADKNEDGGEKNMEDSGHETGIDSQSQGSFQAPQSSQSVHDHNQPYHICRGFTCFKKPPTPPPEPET
Sequence of Paired box protein Pax-8 (Q06710 whole entry): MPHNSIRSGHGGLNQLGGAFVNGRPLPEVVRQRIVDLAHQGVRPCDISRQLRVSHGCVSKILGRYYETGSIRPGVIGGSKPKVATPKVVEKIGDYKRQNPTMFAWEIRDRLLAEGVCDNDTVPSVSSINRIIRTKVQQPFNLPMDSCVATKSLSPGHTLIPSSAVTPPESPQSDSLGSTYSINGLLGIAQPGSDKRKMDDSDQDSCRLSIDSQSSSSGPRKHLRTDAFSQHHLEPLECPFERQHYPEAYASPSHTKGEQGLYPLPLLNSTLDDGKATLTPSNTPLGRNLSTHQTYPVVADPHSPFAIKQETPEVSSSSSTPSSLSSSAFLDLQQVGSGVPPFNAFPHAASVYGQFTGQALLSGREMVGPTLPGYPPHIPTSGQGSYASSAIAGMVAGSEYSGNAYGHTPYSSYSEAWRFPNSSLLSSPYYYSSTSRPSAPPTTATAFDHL
Sequence of Cytochrome P450 3A4 (P08684 whole entry): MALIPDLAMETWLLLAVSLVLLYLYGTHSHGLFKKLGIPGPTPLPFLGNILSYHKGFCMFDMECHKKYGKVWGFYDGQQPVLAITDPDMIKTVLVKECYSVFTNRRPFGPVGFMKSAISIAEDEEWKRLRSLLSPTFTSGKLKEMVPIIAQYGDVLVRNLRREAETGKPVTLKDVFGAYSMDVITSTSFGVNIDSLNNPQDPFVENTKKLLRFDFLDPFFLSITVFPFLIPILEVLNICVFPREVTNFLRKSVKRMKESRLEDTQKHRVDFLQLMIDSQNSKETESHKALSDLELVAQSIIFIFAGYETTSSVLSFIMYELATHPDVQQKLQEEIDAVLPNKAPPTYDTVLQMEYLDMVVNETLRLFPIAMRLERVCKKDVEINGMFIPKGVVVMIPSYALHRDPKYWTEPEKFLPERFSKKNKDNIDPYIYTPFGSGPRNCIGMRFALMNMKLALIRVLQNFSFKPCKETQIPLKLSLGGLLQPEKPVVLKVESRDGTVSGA

Brc1ccc(C2=CC(c3ccco3)n3ncnc3N2)cc1 (stereo not drawn)
EC50 [1]: > 300 µM (inconclusive)
EC50 [2]: 18.1 µM (active)
EC50 [3]: > 195 µM (not active)

O=S(=O)(c1ccccc1)N1CCC(O)(CSc2ccc(Cl)cc2)CC1
EC50 [1]: > 300 µM (not active)
EC50 [2]: > 300 µM (not active)

O=C(NNc1ccccc1)C(=O)NNS(=O)(=O)c1ccc([N+](=O)[O-])cc1
EC50 [1]: 21.1 µM (active)
EC50 [2]: 5.08 µM (active)
EC50 [4]: 0.87 µM (active)
EC50 [5]: 9.05 µM (active)

Cc1nc2ccccn2c1C(=O)NC1CCCc2ccccc21 (stereo not drawn)
AC50 [6]: 2.47 µM (active)
AC50 [7]: 46.8 µM (active)
AC50 [8]: 4.51 µM (active)

Cc1c(N=C2NC(=O)/C(=C/c3ccc(O)cc3)S2)c(=O)n(-c2ccccc2)n1C
IC50 (Large T antigen): 33.1 µM (active)
IC50 [9]: 60.7 µM (active)

CC1(C)Cc2c(C#N)c(SCc3nc4ccccc4[nH]3)nc(N3CCOCC3)c2CO1
IC50 (H9c2): 45.5 µM (inactive)

COc1ccc(Nc2cc(Nc3cc(OC)c(OC)c(OC)c3)ncn2)cc1
IC50 [10]: > 20 µM (inactive)

CN(C)c1ccnc(Oc2ccc(Cl)cc2)c1C#N
EC50 [1]: > 300 µM (not active)
EC50 [2]: > 300 µM (not active)
AC50 (Cytochrome P450 3A4): 3.16 µM (inconclusive)

O=Cc1c(-c2ccccc2)nc2ccccn12
EC50 [1]: > 300 µM (not active)
EC50 [2]: > 300 µM (not active)

CN(c1ccccc1)S(=O)(=O)c1cccc(NC(=O)c2ccc3ncsc3c2)c1
AC50 [6]: 17.2 µM (active)
AC50 [7]: 53.8 µM (active)
AC50 [8]: 13.3 µM (active)

COc1ccc(N2CCN(C(=O)CN(c3ccccc3)S(C)(=O)=O)CC2)cc1
IC50 (Large T antigen): > 100 µM (active)

N#Cc1c(-c2cccs2)cc(-c2cccnc2)nc1N
IC50 (H9c2): > 79 µM (inactive)

CCN(CCCNC(=O)c1cc2c(-c3cccc(OC)c3)nn(C)c2s1)Cc1ccccc1
IC50 [10]: > 20 µM (inactive)

CC(C)NC(=O)C1CCN(C(=O)c2cc3sccc3n2Cc2ccc(F)cc2)CC1
AC50 [6]: 5.05 µM (active)
AC50 [7]: 36.6 µM (active)
AC50 [8]: 8.2 µM (active)

CN(C)c1ccc(N/C=C/C(=O)C(F)(F)F)cc1
IC50 (Large T antigen): 9.98 µM (active)

CCC(=O)NC(c1cc(Cl)c2ccccc2c1O)C1CC1 (stereo not drawn)
IC50 [10]: > 20 µM (inactive)

CCOC(=O)c1ccc(NC(=O)c2[nH]cnc2C(=O)NCCNC(=O)c2nc[nH]c2C(=O)Nc2ccc(C(=O)OCC)cc2)cc1
AC50 [11]: 0.65 µM (active)
AC50 [6]: 5.51 µM (active)
AC50 [7]: 9.03 µM (active)

C=C1CC2(CC(c3ccccc3)OC(c3ccccc3)C2)OC1=O (stereo not drawn)
AC50 [6]: 2.49 µM (active)
AC50 [7]: 38.4 µM (active)
AC50 [8]: 7.45 µM (active)

O=C(COC(=O)Cc1nnc(O)c2ccccc12)Nc1ccc(Cl)cc1F
IC50 (H9c2): > 79 µM (inactive)

COc1cc(-c2cc(NC=O)c3ncc(-c4ccc(C(C)=O)cc4)n3c2)ccc1O
IC50 (H9c2): > 79 µM (inactive)

COc1ccc(-c2cc(NC=O)c3ncc(-c4cccc(C(C)=O)c4)n3c2)cc1
IC50 (H9c2): > 79 µM (inactive)

COc1cccc(-c2cnc3c(NC(C)=O)cc(-c4cccc(NS(C)(=O)=O)c4)cn23)c1
IC50 (H9c2): > 79 µM (inactive)

COc1ccc(-c2ccc3[nH]c4c(c3c2)CCN2C[C@H]3[C@H](C)ON(C)[C@H]3C[C@@H]42)cc1
IC50 (H9c2): > 79 µM (inactive)

C/C(=N\Nc1nnc2c3ccccc3n(C)c2n1)c1ccc(C)o1
EC50 [12]: 17.5 µM (active)
EC50 [13]: 71.3 µM (active)
EC50 (H4): > 120 µM (not active)
IC50 (H9c2): > 79 µM (inactive)

C=C1CC(C(=O)N/N=C/c2ccc(O)cc2)C1
IC50 (Large T antigen): 9.17 µM (active)
IC50 [9]: 42.6 µM (active)

C[C@@H]1CCCCO[C@@H](CN(C)Cc2ccccc2)[C@@H](C)CN([C@@H](C)CO)C(=O)c2cc(NS(=O)(=O)c3ccc(Cl)cc3)ccc2O1
AC50 (Paired box protein Pax-8): 5.43 µM (active)
AC50 [14]: 63.2 µM (active)

O=C(C[C@H]1C[C@@H]2c3cc(NC(=O)Nc4ccc(C(F)(F)F)cc4)ccc3O[C@@H]2[C@@H](CO)O1)NCCc1ccccc1
AC50 (Paired box protein Pax-8): 2.07 µM (active)
AC50 [14]: 60.1 µM (active)

C[C@H](CO)N1C[C@H](C)[C@H](CN(C)C(=O)c2ccccc2)OCCCC[C@H](C)Oc2ccc(NC(=O)Nc3ccc(C(F)(F)F)cc3)cc2C1=O
AC50 (Paired box protein Pax-8): 5.26 µM (active)
AC50 [14]: > 70 µM (inactive)

Cc1ccc2c(c1)c(/N=N/C(=N)S)c(O)n2Cc1ccccc1
IC50 [10]: > 20 µM (inactive)

CCNc1nn2ccccc2c1/C=C(\C#N)C(=O)OCC
EC50 [1]: > 300 µM (not active)
EC50 [2]: 68.8 µM (active)
